Test results from patent US12522587B2, “Cancer treatments targeting cancer stem cells” (Remedy Plan, Inc., priority 2018, dated 2026).

Test system: AGS human gastric adenocarcinoma cells
Assay: Human microarray study (Affymetrix Clariom S) of treated AGS cells
Assay type: cell-based
Settings: two days, positive = downregulated
Procedure: AGS human gastric adenocarcinoma cells were treated with compound I-1, or DMSO alone (as a negative control) for two days. After two days, RNA was isolated from compound I-1 treated cells and DMSO treated cells, in duplicate, and subjected to microarray analysis using AFFYMETRIX CLARIOM S microarrays. Data were represented as fold change relative to the compound I-1 treated cells, negative values represented genes that were on higher in compound I-1 treated cells than in DMSO treated cells, and positive values represented genes that were on higher in DMSO treated cells than in compound I-1 treated cells. Values were averaged for the duplicate samples. We included data for the genes whose expression was altered by more than 3 fold, either up or down, in response to compound I-1.
Negative numbers indicate fold upregulation upon drug treatment. Positive numbers indicate fold downregulation upon drug treatment. […] In addition, Chac1, PCK2, and SLC7A11 were all shown to have a tumor promoting activity and to be associated with the more dangerous and lethal forms of cancer, and these three genes were the three most strongly repressed genes measured in this analysis. There were other examples in the data that supported this model, but the overall model was that compound I-1 increased the expression of tumor suppressor genes, and decreased the expression of tumor promoting genes.

SMILES: CCC(=O)N1CCc2cc(-c3ccc(C(=O)NCc4cccnc4)cc3)ccc21 [Compound I-1]
- Fold Change CEBPG: 3.29 fold
- Fold Change CHAC1: 43.64 fold
- Fold Change CRNDE: 7.6 fold
- Fold Change CTH: 12.23 fold
- Fold Change CTNS: 3.16 fold
- Fold Change CYP1A1: 12.34 fold
- Fold Change DCLRE1A: 3.36 fold
- Fold Change DDIT3: 3.76 fold
- Fold Change DDIT4: 14.73 fold
- Fold Change DEPTOR: 3.05 fold
- Fold Change DMBT1: 3.25 fold
- Fold Change EEF2KMT: 4.01 fold
- Fold Change EFHC1: 3.67 fold
- Fold Change EIF4EBP1: 6.66 fold
- Fold Change ERICH2: 3.35 fold
- Fold Change EXOSC8: 3.68 fold
- Fold Change FAIM: 3.09 fold
- Fold Change FAM27E3: 4.39 fold
- Fold Change FAM86B1: 3.53 fold
- Fold Change FAM86C1: 3.18 fold
- Fold Change FAM111B: 3.46 fold
- Fold Change FAM216A: 3 fold
- Fold Change FIGNL1: 4.84 fold
- Fold Change FILIP1L: 3.7 fold
- Fold Change FUT1: 3.48 fold
- Fold Change GARS: 3.24 fold
- Fold Change GEN1: 3.39 fold
- Fold Change GPX8: 3.7 fold
- Fold Change GRB10: 3.1 fold
- Fold Change GSTM2: 3.25 fold
- Fold Change GSTM4: 4.02 fold
- Fold Change GTPBP2: 4.3 fold
- Fold Change H1F0: 3.59 fold
- Fold Change HAX1: 3.68 fold
- Fold Change HIST1H1B: 4.91 fold
- Fold Change HIST1H1C: 4.26 fold
- Fold Change HIST1H1D: 5.18 fold
- Fold Change HIST1H1E: 3.75 fold
- Fold Change HIST1H2AB: 6.88 fold
- Fold Change HIST1H2AE: 5.92 fold
- Fold Change HIST1H2AG: 5.06 fold
- Fold Change HIST1H2AI: 5.81 fold
- Fold Change HIST1H2AJ: 3.77 fold
- Fold Change HIST1H2AK: 3.52 fold
- Fold Change HIST1H2AL; HIST1H2BN: 3.72 fold
- Fold Change HIST1H2AM; HIST1H3J: 6.91 fold
- Fold Change HIST1H2BB: 3.09 fold
- Fold Change HIST1H2BE: 3.05 fold
- Fold Change HIST1H2BF: 3.75 fold
- Fold Change HIST1H2BG: 3.8 fold
- Fold Change HIST1H2BH: 3.09 fold
- Fold Change HIST1H2BI: 8.02 fold
- Fold Change HIST1H2BJ: 4.83 fold
- Fold Change HIST1H2BK: 3.06 fold
- Fold Change HIST1H2BL: 5.51 fold
- Fold Change HIST1H2BM: 12.33 fold
- Fold Change HIST1H3A: 3.04 fold
- Fold Change HIST1H3B: 5.94 fold
- Fold Change HIST1H3D; HIST1H2AD: 4.82 fold
- Fold Change HIST1H3F: 6.21 fold
- Fold Change HIST1H3G: 9.34 fold
- Fold Change HIST1H3H: 7.63 fold
- Fold Change HIST1H3I: 4.49 fold
- Fold Change HIST1H4A: 5.75 fold
- Fold Change HIST1H4D: 3.02 fold
- Fold Change HIST1H4H: 3.25 fold
- Fold Change HIST2H2AA3; HIST2H2AA4: 3.2 fold
- Fold Change HIST2H2AA4; HIST2H2AA3: 3.08 fold
- Fold Change HIST2H3A: 10.31 fold
- Fold Change HIST2H3A; HIST2H3C: 8.95 fold
- Fold Change HIST2H3D: 4.21 fold
- Fold Change HIST2H4A; HIST2H4B: 3.94 fold
- Fold Change HIST2H4B; HIST2H4A: 3.79 fold
- Fold Change HMMR: 4.62 fold
- Fold Change HOXB9: 5.66 fold
- Fold Change IARS: 3.29 fold
- Fold Change IFRD1: 6.11 fold
- Fold Change IFT88: 4.63 fold
- Fold Change IGF2BP3: 5.34 fold
- Fold Change IL20RB: 4.75 fold
- Fold Change INHBE: 12.74 fold
- Fold Change IRAK1BP1: 3.59 fold
- Fold Change IZUMO1: 4.5 fold
- Fold Change JDP2: 4.94 fold
- Fold Change KIF15: 3.66 fold
- Fold Change KIF21B: 3.52 fold
- Fold Change KLHL5: 3.17 fold
- Fold Change LGALS4: 3.06 fold
- Fold Change LMO4: 3.1 fold
- Fold Change LRRC8D: 3.82 fold
- Fold Change LYRM7: 3.58 fold
- Fold Change MARS; MIR6758: 3.79 fold
- Fold Change MAT2A: 5.04 fold
- Fold Change MB21D2: 4.66 fold
- Fold Change METTL4: 4.39 fold
- Fold Change MINA: 3.05 fold
- Fold Change MIR17HG; MIR17; MIR18A; MIR19A; MIR19B1; MIR20A; MIR92A1: 3.18 fold
- Fold Change MOCOS: 5.87 fold
- Fold Change MTHFD2: 3.26 fold
- Fold Change NCOA5: 3 fold
- Fold Change NCOA7: 3.2 fold
- Fold Change NEDD4: 3.11 fold
- Fold Change NOX1: 6.01 fold
- Fold Change NPIPA2: 3.06 fold
- Fold Change NPIPA3: 3.17 fold
- Fold Change NPIPA5: 3.15 fold
- Fold Change NPIPA7; NPIPA8; PKD1P1: 3.01 fold
- Fold Change NPIPA8: 3.2 fold
- Fold Change NUPR1: 5.76 fold
- Fold Change ORAOV1: 3.3 fold
- Fold Change PCK2: 17.83 fold
- Fold Change PDK1: 3.5 fold
- Fold Change PHLDB2; PLCXD2: 3.75 fold
- Fold Change PKD1; MIR6511B2; MIR6511B1: 3.36 fold
- Fold Change PKD2: 3.76 fold
- Fold Change PKDCC: 3.89 fold
- Fold Change PRIM1: 4.42 fold
- Fold Change PSAT1: 7.92 fold
- Fold Change PSPH: 4.23 fold
- Fold Change PTER: 3.93 fold
- Fold Change PTPRB: 3.96 fold
- Fold Change PYROXD1: 3.74 fold
- Fold Change RASGRP3: 3.19 fold
- Fold Change RASIP1: 3.21 fold
- Fold Change RBBP9: 3.05 fold
- Fold Change RBCK1: 4.36 fold
- Fold Change REG4: 3.04 fold
- Fold Change RFXAP: 4.14 fold
- Fold Change RNF170; MIR4469: 3.95 fold
- Fold Change S100P: 4.36 fold
- Fold Change SERPINB8: 6.07 fold
- Fold Change SETMAR: 3.32 fold
- Fold Change SH2B3: 4.5 fold
- Fold Change SHMT2: 3.22 fold
- Fold Change SLC1A4: 8.26 fold
- Fold Change SLC1A5: 4.04 fold
- Fold Change SLC6A9: 7.78 fold
- Fold Change SLC7A1: 3.19 fold
- Fold Change SLC7A5: 7.31 fold
- Fold Change SLC7A11: 15.27 fold
- Fold Change SLC16A4: 3.65 fold
- Fold Change SLC38A1: 3.03 fold
- Fold Change SLC43A1: 8.25 fold
- Fold Change SLC46A1: 5.39 fold
- Fold Change SLCO1B3: 3.61 fold
- Fold Change ST6GALNAC3: 4.78 fold
- Fold Change STAMBPL1: 3 fold
- Fold Change STPG1: 3.97 fold
- Fold Change SYNPO: 3.2 fold
- Fold Change TADA2A: 3.37 fold
- Fold Change TFF1: 11.81 fold
- Fold Change THOC1: 3.18 fold
- Fold Change TMEM218: 3.29 fold
- Fold Change TNFRSF9: 8.19 fold
- Fold Change TSEN15: 3.5 fold
- Fold Change TUBE1: 5.83 fold
- Fold Change UNC93A: 3.31 fold
- Fold Change WARS: 4.85 fold
- Fold Change WBP4: 3.63 fold
- Fold Change XPA: 3.25 fold
- Fold Change XRCC2: 3.5 fold
- Fold Change YAE1D1: 3.02 fold
- Fold Change ZBED8: 4.58 fold
- Fold Change ZC3H8: 4.04 fold
- Fold Change ZCCHC8: 3.9 fold
- Fold Change ZFAND1: 3.29 fold
- Fold Change ZNF302: 4.83 fold
- Fold Change ZNF518A: 4.12 fold
- Fold Change ZNF780B (first ZNF780B entry): 3.19 fold
- Fold Change ZNF780B (second ZNF780B entry): 3.19 fold
